Laboratory results taken from patent US20110038829A1, “METHODS AND MATERIALS FOR TREATING DIARRHEA” (MAYO FOUNDATION FOR MEDICAL EDUCATION AND RESEARCH, priority 2009, published 2011).

Assays:
healthy volunteers [1] = assay: Scintigraphic gastrointestinal and colonic transit, CDC study; assay type: in vivo, human; conditions: for AC t1/2 (ascending colon emptying) / CF 6 (colonic filling at 6 hours) / GC 4 (colonic geometric center) / GC 24 (colonic geometric center at 24 hours) / GC 48 (colonic geometric center at 48 hours) / GE t1/2: N = 20, mean ± SEM
Protocol: A double-blind, placebo-controlled, parallel-group, randomized study was conducted to evaluate the effects of oral sodium chenodeoxycholate (CDC) or placebo, once daily for 4 days, in healthy volunteers. In a second trial, oral colesevelam hydrochloride or placebo were administered for 12-14 days in patients with diarrhea-predominant irritable bowel syndrome (IBS-D). The study was approved by a review board and all participants signed informed consent. In both studies, allocation was concealed from the study investigators. In the first trial, participants were randomized to placebo, CDC 500 mg, or 1000 mg (20 per group). Sodium CDC (unconjugated) was purchased from Calbiochem (EMD Biosciences Inc., San Diego, Calif. 92121), and the Mayo pharmacy prepared identical placebo and CDC capsules, all of which were coated with the pH sensitive polymer, methacrylate (Eudragit® S-100, Rohm Pharmaceuticals, Darmstadt D-64293, Germany). The latter dissolves at the neutral pH found in the distal ileum and was used to ensure ileocolonic delivery of the CDC or placebo. All participants were screened for idiopathic bile acid malabsorption (BAM) with fasting serum 7alpha-hydroxy-4-cholesten-3-one (7αC4). 60 patients (mean age 38.7 years, 43 female) were enrolled to the study. Three groups (n=20 each) were randomized to one oral capsule daily containing placebo, 500 mg, or 1000 mg CDC, each for a period of 4 days. Gastrointestinal (GI) and colonic transit was conducted by a scintigraphic method (Burton et al., J. Nucl. Med., 38:1807-1810 (1997) and Cremonini et al., Aliment Pharmacol. Ther., 16:1781-1790 (2002)) during the last 48 hours of drug ingestion. An adaptation of an established scintigraphic method was used to measure gastrointestinal and colonic transit (Burton et al., J. Nucl. Med., 38:1807-1810 (1997) and Cremonini et al., Aliment Pharmacol. Ther., 16:1781-1790 (2002)). Patients with IBS-D had baseline measurement of colonic transit since this is known to be a significant covariate in treatment responses. The primary endpoints were the colonic geometric center (GC) at 24 hours (GC 24) and ascending colon (AC) emptying t1/2. […] The capsule was ingested following an overnight fast. After the capsule emptied from the stomach, a 99 mTc-sulfur colloid radiolabeled meal was ingested. It consisted of two scrambled eggs, one slice of whole wheat bread, and one glass of whole milk. This meal allowed measurement of gastric and small bowel transit. Subjects ingested standardized meals for lunch and dinner at 4 and 8 hours after the radiolabeled meal, respectively. Abdominal scans were obtained every hour for the first 6 hours (the first 4 hours for the assessment of gastric emptying) and at 8, 24, and 48 hours after ingestion of the ^111In capsule. The counts in the stomach and each of four colonic regions, ascending, transverse, descending, and combined sigmoid and rectum, were quantitated with a variable region of interest program. Counts were corrected for isotope decay, tissue attenuation, and downscatter of ^111In counts in the 99 mTc window. Gastric emptying t1/2 is a measure of the time for 50% of the radiolabeled meal (identifiable by radiolabeled tracer) to empty from the stomach. Colonic filling at 6 hours, or the proportion of the radiolabeled meal to have reached the colon at 6 hours, is an indirect measurement of small bowel transit time. Overall colonic transit was summarized as the colonic geometric center (GC) at specified times. The GC is the weighted average of counts in the different colonic regions (ascending (AC), transverse (TC), descending (DC), rectosigmoid (RS)) and stool, respectively 1 to 5. At any time, the proportion of counts in each colonic region is multiplied by its weighting factor as follows: (%AC×1+%TC×2+%DC×3+%RS×4+%stool×5)/100=GC Thus, a higher GC reflects a faster colonic transit. Ascending colon emptying was summarized by the t1/2 calculated by linear interpolation of values on the AC emptying curve.

healthy volunteers [2] = assay: Daily stool diaries (bowel function), CDC study; assay type: in vivo, human; conditions: for Ease of passage (scale1-7) / Stool consistency by Bristol Stool Form Scale / Stool frequency per day: N = 20, mean ± SEM
Protocol: 60 patients (mean age 38.7 years, 43 female) were enrolled to the study. Three groups (n=20 each) were randomized to one oral capsule daily containing placebo, 500 mg, or 1000 mg CDC, each for a period of 4 days. Gastrointestinal (GI) and colonic transit was conducted by a scintigraphic method (Burton et al., J. Nucl. Med., 38:1807-1810 (1997) and Cremonini et al., Aliment Pharmacol. Ther., 16:1781-1790 (2002)) during the last 48 hours of drug ingestion. All participants completed bowel function diaries that documented the time of each bowel movement, stool consistency (Bristol Stool Form Scale), the ease of passage (ranging from 1=“manual disimpaction” to 7=“incontinence”), and completeness of evacuation (1=“yes” and 0=“no”). In the first study, patients recorded diaries during at least 3 days of the baseline period and the 4 days of treatment. The diaries were recorded for at least 3 days of the baseline period and during the entire treatment period of the second study.

healthy volunteers [3] = test system: healthy volunteers; parameters: species or system human; conditions: in vivo
Protocol: An independent statistician, who otherwise was not involved in the study, generated the randomization codes, and the allocation was concealed. All clinical and laboratory study personnel were blinded throughout the study until all data were locked and analyzed. Clinical safety monitoring was conducted by the study investigators throughout the study. 60 patients (mean age 38.7 years, 43 female) were enrolled to the study. Three groups (n=20 each) were randomized to one oral capsule daily containing placebo, 500 mg, or 1000 mg CDC, each for a period of 4 days. Gastrointestinal (GI) and colonic transit was conducted by a scintigraphic method (Burton et al., J. Nucl. Med., 38:1807-1810 (1997) and Cremonini et al., Aliment Pharmacol. Ther., 16:1781-1790 (2002)) during the last 48 hours of drug ingestion.

[4] = CDC 500 mg once daily for 4 days
[5] = CDC 1000 mg once daily for 4 days

Compound: C[C@H](CCC(=O)[O-])[C@H]1CC[C@H]2[C@@H]3[C@H](O)C[C@@H]4C[C@H](O)CC[C@]4(C)[C@H]3CC[C@]12C.[Na+] [CDC, sodium chenodeoxycholate]
- AC t1/2 (ascending colon emptying) (healthy volunteers [1]; [4]): 12.1 ± 2.1 h
- CF 6 (colonic filling at 6 hours) (healthy volunteers [1]; [4]): 49.6 ± 7.0%
- GC 4 (colonic geometric center) (healthy volunteers [1]; [4]): 0.87 ± 0.18
- GC 24 (colonic geometric center at 24 hours) (healthy volunteers [1]; [4]): 2.80 ± 0.27
- GC 48 (colonic geometric center at 48 hours) (healthy volunteers [1]; [4]): 4.10 ± 0.21
- GE t1/2 (healthy volunteers [1]; [4]): 126.9 ± 5.3 min
- Treatment effect on colonic filling at 6 hours (in words) (healthy volunteers [1]; CDC 500 mg or 1000 mg vs placebo): not detected
- AC t1/2 (ascending colon emptying) (healthy volunteers [1]; [5]): 10.7 ± 1.9 h
- CF 6 (colonic filling at 6 hours) (healthy volunteers [1]; [5]): 46.0 ± 7.1%
- GC 4 (colonic geometric center) (healthy volunteers [1]; [5]): 1.27 ± 0.33
- GC 24 (colonic geometric center at 24 hours) (healthy volunteers [1]; [5]): 3.76 ± 0.30
- GC 48 (colonic geometric center at 48 hours) (healthy volunteers [1]; [5]): 4.92 ± 0.05
- GE t1/2 (healthy volunteers [1]; [5]): 143.0 ± 14.1 min
- Effect on colonic transit (GC) at 24 and 48 hours (in words) (healthy volunteers [1]; FIG. 3, 1000 mg p<0.0001, 500 mg p<0.01 vs placebo): overall acceleration of colonic transit
- Ease of passage (scale1-7) (healthy volunteers [2]; [4]): 4.1 ± 0.06
- Stool consistency by Bristol Stool Form Scale (healthy volunteers [2]; [4]): 4.29 ± 0.19
- Stool frequency per day (healthy volunteers [2]; [4]): 1.50 ± 0.18 per day
- Effect on sense of complete evacuation (in words) (healthy volunteers [2]; CDC 500 mg or 1000 mg vs placebo, p=0.02): significant overall treatment effects
- Ease of passage (scale1-7) (healthy volunteers [2]; [5]): 4.3 ± 0.06
- Stool consistency by Bristol Stool Form Scale (healthy volunteers [2]; [5]): 4.80 ± 0.15
- Stool frequency per day (healthy volunteers [2]; [5]): 2.01 ± 0.15 per day
- Effect on stool form/consistency (in words) (healthy volunteers [2]; FIG. 3, p<0.0001): more liquid consistency stool
- Effect on stool frequency (in words) (healthy volunteers [2]; FIG. 3, p<0.001): increase in stool frequency
- Adverse event: headache, rate (healthy volunteers [3]): 20-25%
- Adverse events: gas, bloating and nausea, participants (healthy volunteers [3]): 5-20%
